{"source": "patent US6121252A", "about": "“Phosphinic acid derivatives” (priority 1998, dated 2000)", "key": {"[1]": {"tested_on": "Sprague-Dawley rats", "assay": "Dynorphin-induced spinal cord injury", "format": "in vivo, rat", "description": "Dynorphin-induced spinal cord injury was performed according to Long et al., JPET, Vol. 269, No. 1, pp. 358-366 (1993). In brief, spinal subarachnoid injections were delivered using 30-gauge needles inserted between the L4-L5 vertebrae of male Sprague-Dawley rats (300-350 g). The rats were anesthetized with halothane and dorsal midline incisions were made immediately rostral to the pelvic girdle. By using the vertebral processes as guides, the needle was advanced to pass into the subarachnoid space surrounding the cauda equina. Correct needle placement was verified by CSF flow from the needle after its insertion. […] After injections, the incisions were treated with the topical antibacterial furazolidone and closed with wound clips. Rapid recovery from the halothane anesthesia enabled neurological evaluations to be made within 5 minutes of injections.\nNeurological function was evaluated using a 5-point ordinal scale, with scores being assigned as follows: 4=normal motor function; 3=mild paraparesis, with the ability to support weight and walk with impairment; 2=paraparesis, with the ability to make walking movements without fully supporting weight; 1=severe paraparesis, in which rats could make limited hind limb movement, but not walking movement; and 0=flaccid paralysis, with complete absence of any hind limb movement. Neurological evaluations were made 24 hours after dynorphin A injection.\nDifferences in the neurological scores among treatment groups were determined by means of the Mann-Whitney U test or the Kruskal-Wallis test."}, "[2]": {"tested_on": "mice", "assay": "In vivo toxicity of NAALADase inhibitors (5-day survival)", "conditions": "1 to 500 mg/kg", "from_the_text": "The mice were subsequently observed two times per day for 5 consecutive days. The survival rate at each dose level is provided below in TABLE II."}, "[3]": {"tested_on": "LNCaP cells", "procedure": "On the 7th day, the cells are pulsed with 3H-thymidine for 4 hours, harvested and measured for radioactivity. Values represent means +/- SEM of 6 separate cell wells for each treatment. All experiments are performed at least twice.\nLNCaP cells are obtained from Dr. William Nelson at the Johns Hopkins School of Medicine in Baltimore, Md. DU145 cells are obtained from American Type Culture Collection (Rockville, Md.). Cells are grown in RPMI-1640 media supplemented with 5% heat-inactivated fetal calf serum, 2 mM-glutamine, 100 units/ml penicillin, and 100 μg/ml streptomycin (Paragon) in a humidified incubator at 37° C. in a 5% CO2 /95% air atmosphere.\nThe cells are suspended at 1×10^3 cells/ml in RPMI-1640 media and seeded into 24-well plates at 500 μl per well. […] 5 ml UltimaGold (Packard) scintillation cocktail is added and radioactivity is quantitated using a Beckman LS6001 scintillation counter."}, "[4]": {"tested_on": "dopaminergic neurons", "assay": "Parkinson's Disease model: MPTP lesioned mice", "format": "in vivo, CD1 mice", "conditions": "10 mg/kg, p<0.001", "description": "To examine the effect of NAALADase inhibitors on Parkinson's Disease in vivo, MPTP lesioned mice were treated with 2-(phosphonomethyl)pentanedioicacid or a vehicle.\nMPTP lesioning of dopaminergic neurons in mice was used as an animal model of Parkinson's Disease, as described by Steiner, Proc. Natl. Acad. Sci., Vol. 94, pp. 2019-2024 (March 1997). In brief, four week old male CD1 white mice were dosed IP with 30 mg/kg of MPTP for 5 days. […] At 18 days following MPTP treatment, the mice were sacrificed and their brains were removed and sectioned. Immunostaining was performed on saggital and coronal brain sections using anti-tyrosine hydroxylase (TH) antibodies to quantitate survival and recovery of dopaminergic neurons."}, "[5]": {"tested_on": "male Long-Evans rats", "assay": "Nicotine self-administration in male Long-Evans rats", "format": "in vivo, rat", "conditions": "200 mg/kg", "description": "Male Long-Evans rats were trained to self-administer nicotine on a fixed ratio schedule of reinforcement, as described by Corrigall et al., Psychopharmacology, Vol. 104, No. 2, pp. 171-176 (1991) and Corrigall et al., Psychopharmacology, Vol. 107, Nos. 2-3, pp. 285-289 (1992). In brief, male Long-Evans rats were food deprived for a short period of time (24-48 hours) and trained to press a lever in an operant responding chamber on an FR-1 schedule of food reinforcement. Once trained, each rat was surgically prepared with a chronic intravenous catheter implanted into the jugular vein. The rats were allowed 1 week to recover from surgery.\nAfter 1 week, nicotine self-administration studies were initiated on an FR-1 with a 60 second signaled time-out following each infusion. During time-out, responding on the lever had no scheduled consequence. Nicotine self-administration sessions were 60 minutes in duration. Each nicotine infusion contained 30 μg of nicotine/kg rat and were delivered in a volume of 54 μl over an infusion duration of 0.3 seconds. […] Food intake was monitored during the nicotine self-administration sessions to assess non-specific drug effects."}, "[6]": {"tested_on": "extracellular glutamate", "assay": "Stroke-induced rise in brain glutamate levels (microdialysis)", "format": "in vivo, Sprague Dawley rats", "conditions": "100 mg/kg IP then 20 mg/kg/hr IV"}, "[7]": {"tested_on": "sciatic nerve", "assay": "Myelin formation following sciatic nerve cryolesion", "format": "in vivo, mouse", "description": "Cryolesion of the mouse sciatic nerve was performed according to Koenig et al. , Science, Vol. 268, pp. 1500-1503 (June 1995). In brief, each mouse was anesthetized and its sciatic nerve was exposed in the upper thigh and cryolesioned using a copper cryode (diameter=0.5 mm) that was dipped in liquid nitrogen and repeatedly applied to the upper part of the nerve. The extent of the lesion was approximately 1 mm.\nBoth right and left sciatic nerves of each mouse were lesioned; right-side nerves were treated with silicone implant strips containing vehicle alone while left-side nerves were treated with silicone implants containing 2-(phosphonomethyl)pentanedioic acid. Fifteen days after surgery, the mice were sacrificed and their sciatic nerve segments were collected and processed for light microscopy and TEM analysis. Randomly chosen fields 2-3 mm distal to the lesion were qualitatively analyzed by light microscopy using 1-micrometer-thick toluidine blue stained cross sections and photographic images were captured."}, "[8]": {"tested_on": "LNCaP tumors", "assay": "In vivo LNCaP tumor model, subcutaneous Compound 3", "design": "species or system ncr nude male mice", "description": "Ncr nude male mice, age 5 to 6 weeks, were injected in the right flank with 5×10^6 LNCaP cells in Matrigel™ (0.1 ml total injection volume). […] Controls received 50 mM HEPES s.c. daily. Once tumors were palpable they were measured twice a week.\n(§1) Response to treatment was monitored in two ways. First, mean tumor volume for each group was presented as tumor:control ratio (% T/C) and these values were compared at one point in time. Second, tumor volume versus time was monitored."}, "[9]": {"tested_on": "Dunning G tumors", "assay": "In vivo Dunning G tumor model, subcutaneous Compound 3", "design": "species or system male Copenhagen syngenic rats", "description": "Male Copenhagen syngenic rats, age 8 to 10 weeks, were injected in both flanks with 10^7 Dunning G cells. […] Controls received 50 mM HEPES s.c. daily. Tumors were measured twice a week.\nas §1"}, "[10]": {"tested_on": "SHRSP rats", "assay": "Cortical injury following MCAO in SHRSP rats", "format": "in vivo, rat", "conditions": "for Cortical Injury Volume / Cortical Injury Volume (% injury): ± S.E.M., n = 10", "description": "Rectal temperature is maintained at 37.0±0.50° C. throughout the surgical procedure using a heating lamp."}, "[11]": {"conditions": "10 mg/kg then 2 mg/kg/hr for 1 hour"}, "[12]": {"conditions": "100 mg/kg then 20 mg/kg/hr for one hour"}}, "note": "Read-outs that look alike come from different tables or passages of the source."}
{"smiles": "O=C(O)CCC(CP(=O)(O)O)C(=O)O", "note": "(stereo not drawn) [Compound 3, 2-(phosphonomethyl)pentanedioic acid]", "values": [{"measurement": "motor scores (in words)", "setting": "[1]; 4 μmoles with dynorphin A, 24 hours, p<0.05 vs vehicle", "result": "significant improvement in motor scores"}, {"measurement": "rats ambulatory", "setting": "[1]; 24 hours post-injection, 15 rats, vehicle 14%, p<0.05", "result": 73, "unit": "%"}, {"measurement": "protection against dynorphin-induced spinal cord injury (in words)", "setting": "[1]; rat, in vivo", "result": "provides effective protection against dynorphin-induced spinal cord injury"}, {"measurement": "toxicological effect (in words)", "setting": "[2]", "result": "non-toxic to mice"}, {"measurement": "3H-Thymidine Incorporation", "setting": "[3]; 10 pM", "result": "3078 ± 1006", "unit": "dpm/well"}, {"measurement": "3H-Thymidine Incorporation", "setting": "[3]; 100 pM", "result": "2062 ± 595", "unit": "dpm/well"}, {"measurement": "3H-Thymidine Incorporation", "setting": "[3]; 1 nM", "result": "1001 ± 52", "unit": "dpm/well"}, {"measurement": "3H-Thymidine Incorporation", "setting": "[3]; 10 nM", "result": "664 ± 366", "unit": "dpm/well"}, {"measurement": "recovery of TH-stained dopaminergic neurons (in words)", "setting": "[4]", "result": "significant recovery of TH-stained dopaminergic neurons"}, {"measurement": "cumulative food intake (in words)", "setting": "[5]; 1 hour", "result": "decreased"}, {"measurement": "nicotine self-administration", "setting": "[5]; 1 hour access period, reduced from 23", "result": 5, "unit": "infusions"}, {"measurement": "stroke-induced glutamate changes, parietal cortex (in words)", "setting": "[6]; p<0.01", "result": "completely prevented concurrent glutamate changes in the parietal cortex"}, {"measurement": "stroke-induced extracellular glutamate increase, striatum (in words)", "setting": "[6]; p<0.05", "result": "significantly attenuated stroke-induced extracellular glutamate increases in the striatum"}, {"measurement": "glutamate, frontal cortex (in words)", "setting": "[6]; vs vehicle", "result": "no subsequent difference between the vehicle and 2-(phosphonomethyl)pentanedioic acid treated groups"}, {"measurement": "# of myelinated lamellae", "setting": "[7]; ave. + SEM, vehicle 13.77 ± 0.09, p < 0.005", "result": "16.53 ± 0.65"}, {"measurement": "% increase of myelinated lamellae over vehicle", "setting": "[7]; p < 0.005", "result": 20, "unit": "%"}, {"measurement": "ratio of # of myelinated axons (drug/vehicle)", "setting": "[7]; silicone implant, approx. 2.5 μg/day, 15 days", "result": 1.5}, {"measurement": "increase in number of myelinated axons", "setting": "[7]; vs vehicle, 3 mm distal to cryolesion", "result": 1.5, "unit": "fold"}, {"measurement": "increase in myelin thickness", "setting": "[7]; vs vehicle, 3 mm distal to cryolesion, p<0.005", "result": 20, "unit": "%"}, {"measurement": "effect on tumor growth (in words)", "setting": "[8]; 1 mg/kg s.c.", "result": "no effect on tumor growth"}, {"measurement": "effect on tumor growth (in words)", "setting": "[8]; 3 mg/kg s.c.", "result": "no effect on tumor growth"}, {"measurement": "tumor growth, % of controls", "setting": "[8]; 10 mg/kg s.c., day 86, p=0.006", "result": "24 % of controls"}, {"measurement": "effect on tumor growth (in words)", "setting": "[8]; 30 mg/kg s.c.", "result": "no effect on tumor growth"}, {"measurement": "effect on tumor growth (in words)", "setting": "[9]; 1 mg/kg s.c.", "result": "no effect on tumor growth"}, {"measurement": "effect on tumor growth (in words)", "setting": "[9]; 3 mg/kg s.c.", "result": "no effect on tumor growth"}, {"measurement": "tumor size, % of controls", "setting": "[9]; 10 mg/kg s.c., p=0.03", "result": "38 % of controls"}, {"measurement": "tumor size, % of controls", "setting": "[9]; 30 mg/kg s.c.", "result": "22 % of controls"}, {"measurement": "Cortical Protection", "setting": "[10]; [11]", "result": 27, "unit": "% protection"}, {"measurement": "Cortical Injury Volume", "setting": "[10]; [11]", "result": "135.00 ± 32.18", "unit": "mm^3"}, {"measurement": "Cortical Injury Volume (% injury)", "setting": "[10]; [11]", "result": "29.14 ± 7.68", "unit": "% injury"}, {"measurement": "Cortical Protection", "setting": "[10]; [12]", "result": 65, "unit": "% protection"}, {"measurement": "Cortical Injury Volume", "setting": "[10]; [12]", "result": "65.23 ± 32.18", "unit": "mm^3"}, {"measurement": "Cortical Injury Volume (% injury)", "setting": "[10]; [12]", "result": "13.98 ± 6.64", "unit": "% injury"}]}
